Test results taken from US20230255966A1, “A COMBINATION OF A CBP/P300 BROMODOMAIN INHIBITOR AND AN EGFR INHIBITOR FOR USE IN TREATING EGFR-MUTANT NSCLC” (TOLREMO THERAPEUTICS AG, priority 2020, published 2023).

Assays:
[1] = biological target: T1, BRD1 (Homo sapiens, UniProt O95696); assay: BROMOscan BromoKdMAX; format: binding
T1 construct: T7 phage strains displaying bromodomains were grown in parallel; purchased DiscoverX; host or cells: T7 phage in E. coli host derived from BL21
Procedure: (§1) A BromoKdMAX was performed at DiscoverX.
(§2) The assay principle is the following: BROMOscan™ is a novel industry leading platform for identifying small molecule bromodomain inhibitors. Based on proven KINOMEscan™ technology, BRO-MOscan™ employs a proprietary ligand binding site-directed competition assay to quantitatively measure interactions between test compounds and bromodomains. This robust and reliable assay panel is suitable for high throughput screening and delivers quantitative ligand binding data to facilitate the identification and optimization of potent and selective small molecule bromodomain inhibitors.
(§3) The assay was conducted as follows: For the Bromodomain assays, T7 phage strains displaying bromodomains were grown in parallel in 24-well blocks in an E. coli host derived from the BL21 strain. E. coli were grown to log-phase and infected with T7 phage from a frozen stock (multiplicity of infection=0.4) and incubated with shaking at 32° C. until lysis (90-150 minutes). The lysates were centrifuged (5,000×g) and filtered (0.2 μm) to remove cell debris. […] The liganded beads were blocked with excess biotin and washed with blocking buffer (SeaBlock (Pierce), 1% BSA, 0.05% Tween 20, 1 mM DTT) to remove unbound ligand and to reduce non-specific phage binding. […] Test compounds were prepared as 1000× stocks in 100% DMSO. Kds were determined using an 11-point 3-fold compound dilution series with one DMSO control point. […] The compounds were then diluted directly into the assays such that the final concentration of DMSO was 0.09%. All reactions performed in polypropylene 384-well plates. Each was a final volume of 0.02 ml. […] The bromodomain concentration in the eluates was measured by qPCR.

[2] = biological target: T2, BAZ2A (Homo sapiens, UniProt Q9UIF9); assay: BROMOscan BromoKdMAX; format: binding
T2 construct: T7 phage strains displaying bromodomains were grown in parallel; purchased DiscoverX; host or cells: T7 phage in E. coli host derived from BL21
Procedure: as §1, §2, §3

[3] = biological target: T3, BRPF3 (Homo sapiens, UniProt Q9ULD4); assay: BROMOscan BromoKdMAX; format: binding
T3 construct: T7 phage strains displaying bromodomains were grown in parallel; purchased DiscoverX; host or cells: T7 phage in E. coli host derived from BL21
Procedure: as §1, §2, §3

[4] = biological target: T4, ATAD2B (Homo sapiens, UniProt Q9ULI0); assay: BROMOscan BromoKdMAX; format: binding
T4 construct: T7 phage strains displaying bromodomains were grown in parallel; purchased DiscoverX; host or cells: T7 phage in E. coli host derived from BL21
Procedure: as §1, §2, §3

[5] = biological target: T5, SMARCA4 (Homo sapiens, UniProt P51532); assay: BROMOscan BromoKdMAX; format: binding
T5 construct: T7 phage strains displaying bromodomains were grown in parallel; purchased DiscoverX (BROMOscan / BromoKdMAX service); host or cells: T7 phage in E. coli host derived from BL21
Procedure: as §1, §2, §3

[6] = biological target: T6, PBRM1(5) (Homo sapiens, UniProt Q86U86); assay: BROMOscan BromoKdMAX; format: binding
T6 construct: T7 phage strains displaying bromodomains were grown in parallel; purchased DiscoverX (BROMOscan / BromoKdMAX service); host or cells: T7 phage in E. coli host derived from BL21
Procedure: as §1, §2, §3

[7] = biological target: T7, BAZ2B (Homo sapiens, UniProt Q9UIF8); assay: BROMOscan BromoKdMAX; format: binding
T7 construct: T7 phage strains displaying bromodomains were grown in parallel; purchased DiscoverX; host or cells: T7 phage in E. coli host derived from BL21
Procedure: as §1, §2, §3

[8] = biological target: T8, GCN5L2 (Homo sapiens, UniProt Q92830); assay: BROMOscan BromoKdMAX; format: binding
T8 construct: T7 phage strains displaying bromodomains were grown in parallel; purchased DiscoverX (BROMOscan / BromoKdMAX service); host or cells: T7 phage in E. coli host derived from BL21
Procedure: as §1, §2, §3

[9] = biological target: T9, PBRM1(2) (Homo sapiens, UniProt Q86U86); assay: BROMOscan BromoKdMAX; format: binding
T9 construct: T7 phage strains displaying bromodomains were grown in parallel; purchased DiscoverX (BROMOscan / BromoKdMAX service); host or cells: T7 phage in E. coli host derived from BL21
Procedure: as §1, §2, §3

[10] = biological target: T10, TRIM33(PHD, Bromo.) (Homo sapiens, UniProt Q9UPN9); assay: BROMOscan BromoKdMAX; format: binding
T10 construct: TRIM33(PHD, Bromo.)
Procedure: as §1, §2, §3

[11] = biological target: T11, ATAD2A (Homo sapiens, UniProt Q6PL18); assay: BROMOscan BromoKdMAX; format: binding
T11 construct: T7 phage strains displaying bromodomains were grown in parallel; purchased DiscoverX; host or cells: T7 phage in E. coli host derived from BL21
Procedure: as §1, §2, §3

[12] = biological target: T12, SMARCA2 (Homo sapiens, UniProt P51531); assay: BROMOscan BromoKdMAX; format: binding
T12 construct: T7 phage strains displaying bromodomains were grown in parallel; purchased DiscoverX (BROMOscan / BromoKdMAX service); host or cells: T7 phage in E. coli host derived from BL21
Procedure: as §1, §2, §3

[13] = biological target: T13, FALZ (Homo sapiens, UniProt Q12830); assay: BROMOscan BromoKdMAX; format: binding
T13 construct: T7 phage strains displaying bromodomains were grown in parallel; purchased DiscoverX (BROMOscan / BromoKdMAX service); host or cells: T7 phage in E. coli host derived from BL21
Procedure: as §1, §2, §3

[14] = test system: HCC827 cells; assay: Cell counting by nuclear fluorescent staining (Hoechst33342); format: cell-based
Procedure: Several plates were seeded, as for each time point of cell counting one plate was fixed and stained for analysis. […] Cell cultivation was continued until time of fixation and analysis for each plate. For extended time-points, medium and drugs were replenished twice weekly.
At the given time plates were washed 3 times with PBS and cells fixed with 80 μl 4% PFA for 10 min, RT. After 3 wash steps with PBS cells were stained with 10 μg/ml Hoechst33342 (Thermo Scientific H12492) in 100 μl PBS for 2 h, RT, dark. After 3× PBS washing-steps, Hoechst33342 signals were acquired on in an automated imaging mode using a Zeiss Apotome with motorized X/Y stage and a 5× objective. Image analysis and determination of Hoechst33342 spots (nuclei) was done using ImageJ. Number of nuclei was plotted as function of time using GraphPad Prism.

[15] = test system: NCI-H1975 xenografts; assay: NCI-H1975 xenograft tumor growth; format: in vivo, NMRI-Nude mice
Procedure: Tumor volume was measured using a manual caliper two to three times a week. The tumor volume was calculated using the formula: lager tumor diameter x square of the smaller tumor diameter divided by 2. Based on a linear fit of the mean tumor volumes the slopes of the curves were compared by regression analysis (two-tailed).
(§4) The response was determined by comparing tumor volume change at time t to its baseline: % tumor volume change=ΔVolt=100%×((Vt−Vinitial)/Vinitial). The Best Response was the minimum value of ΔVolt for t≥10 d. For each time t, the average of ΔVolt from t=0 to t was also calculated. The BestAvgResponse is defined as the minimum value of this average for t≥10 d. This metric captures a combination of speed, strength and durability of response into a single value. […] Mice that were sacrificed because of an adverse event before they had completed 14 d on trial were removed from the data set.
as §4, with “ΔVolt for t≥6 d. For” for “ΔVolt for t≥10 d. For”

[16] = test system: HCC827 cells; assay: Label-free determination of cell proliferation (CELIGO); format: cell-based; conditions: 21 days (FIG. 9)

T11 sequence (Q6PL18 980-1092 limits assumed): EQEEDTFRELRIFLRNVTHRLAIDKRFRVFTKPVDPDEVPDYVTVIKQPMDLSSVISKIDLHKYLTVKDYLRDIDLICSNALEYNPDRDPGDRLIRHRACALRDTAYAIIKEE
T6 sequence (Q86U86 653-763 limits assumed): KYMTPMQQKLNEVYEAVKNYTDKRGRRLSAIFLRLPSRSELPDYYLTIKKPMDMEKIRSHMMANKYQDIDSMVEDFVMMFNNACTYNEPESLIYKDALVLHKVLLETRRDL
T4 sequence (Q9ULI0 951-1066 limits assumed): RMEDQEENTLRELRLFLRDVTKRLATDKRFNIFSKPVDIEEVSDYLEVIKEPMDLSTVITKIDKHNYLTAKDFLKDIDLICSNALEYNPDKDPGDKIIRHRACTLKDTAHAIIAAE
T2 sequence (Q9UIF9 1793-1897 limits assumed): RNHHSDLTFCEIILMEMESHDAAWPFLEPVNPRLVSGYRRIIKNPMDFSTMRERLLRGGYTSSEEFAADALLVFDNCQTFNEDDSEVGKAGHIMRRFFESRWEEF
T1 sequence (O95696 562-666 limits assumed): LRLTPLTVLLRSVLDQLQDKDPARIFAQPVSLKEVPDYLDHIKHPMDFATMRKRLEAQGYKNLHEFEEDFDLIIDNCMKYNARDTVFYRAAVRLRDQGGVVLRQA
T5 sequence (P51532 1453-1564 limits assumed): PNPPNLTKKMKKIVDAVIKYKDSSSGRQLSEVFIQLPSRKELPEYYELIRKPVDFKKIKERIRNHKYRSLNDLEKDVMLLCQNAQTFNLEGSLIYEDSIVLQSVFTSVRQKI
T12 sequence (P51531 1378-1506 limits assumed): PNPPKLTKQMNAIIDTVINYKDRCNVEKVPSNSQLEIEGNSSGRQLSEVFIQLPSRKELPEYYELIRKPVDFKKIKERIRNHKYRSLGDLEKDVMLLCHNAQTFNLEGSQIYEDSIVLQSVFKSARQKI
T3 sequence (Q9ULD4 589-693 limits assumed): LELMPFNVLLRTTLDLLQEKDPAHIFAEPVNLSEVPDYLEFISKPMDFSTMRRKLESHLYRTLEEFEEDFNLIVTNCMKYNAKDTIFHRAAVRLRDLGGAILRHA
T7 sequence (Q9UIF8 2060-2164 limits assumed): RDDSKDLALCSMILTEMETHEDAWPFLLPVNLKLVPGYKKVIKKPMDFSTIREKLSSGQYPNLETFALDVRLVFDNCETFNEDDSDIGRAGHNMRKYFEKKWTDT
T10 sequence (Q9UPN9 whole entry): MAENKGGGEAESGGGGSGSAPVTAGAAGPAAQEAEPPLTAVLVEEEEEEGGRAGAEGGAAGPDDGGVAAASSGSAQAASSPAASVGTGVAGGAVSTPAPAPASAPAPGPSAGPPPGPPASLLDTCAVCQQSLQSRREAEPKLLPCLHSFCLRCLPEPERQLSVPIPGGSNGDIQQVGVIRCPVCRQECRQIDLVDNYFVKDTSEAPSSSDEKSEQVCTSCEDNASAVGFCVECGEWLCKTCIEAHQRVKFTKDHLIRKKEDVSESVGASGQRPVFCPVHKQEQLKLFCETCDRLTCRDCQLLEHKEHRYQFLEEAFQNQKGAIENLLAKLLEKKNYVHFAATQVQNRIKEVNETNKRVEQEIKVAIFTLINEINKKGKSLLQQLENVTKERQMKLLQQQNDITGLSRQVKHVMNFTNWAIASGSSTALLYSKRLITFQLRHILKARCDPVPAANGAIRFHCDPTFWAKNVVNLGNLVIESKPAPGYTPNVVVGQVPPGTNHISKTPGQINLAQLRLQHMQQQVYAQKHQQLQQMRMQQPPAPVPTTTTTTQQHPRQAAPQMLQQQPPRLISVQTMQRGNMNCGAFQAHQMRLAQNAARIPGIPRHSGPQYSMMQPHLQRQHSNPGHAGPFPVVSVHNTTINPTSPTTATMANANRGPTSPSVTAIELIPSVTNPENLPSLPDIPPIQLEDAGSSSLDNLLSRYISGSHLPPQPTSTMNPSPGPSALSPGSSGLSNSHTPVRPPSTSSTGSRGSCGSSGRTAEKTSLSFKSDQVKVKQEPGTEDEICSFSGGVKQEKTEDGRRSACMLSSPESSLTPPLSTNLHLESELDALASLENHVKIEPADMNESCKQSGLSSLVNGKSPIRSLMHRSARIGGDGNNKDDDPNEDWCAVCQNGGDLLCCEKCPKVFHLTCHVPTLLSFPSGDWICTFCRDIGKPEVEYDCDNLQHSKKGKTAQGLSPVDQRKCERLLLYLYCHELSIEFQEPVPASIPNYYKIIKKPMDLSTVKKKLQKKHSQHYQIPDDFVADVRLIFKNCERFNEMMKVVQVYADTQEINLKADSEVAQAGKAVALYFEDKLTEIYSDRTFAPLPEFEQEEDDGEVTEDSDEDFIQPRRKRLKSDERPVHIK
T9 sequence (Q86U86 177-287 limits assumed): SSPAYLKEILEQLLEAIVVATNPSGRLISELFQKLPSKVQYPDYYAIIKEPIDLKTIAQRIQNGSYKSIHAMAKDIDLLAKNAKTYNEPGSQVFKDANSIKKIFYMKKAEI
T8 sequence (Q92830 728-832 limits assumed): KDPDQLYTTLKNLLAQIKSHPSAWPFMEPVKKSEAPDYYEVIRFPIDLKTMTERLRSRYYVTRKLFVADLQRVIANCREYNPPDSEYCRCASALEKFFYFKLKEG

Compound: CO[C@H]1CC[C@H](n2c([C@@H]3CCCC(=O)N3c3ccc(F)c(F)c3)nc3cc(-c4c(C)noc4C)ccc32)CC1 [CCS1477]
- Kd [1]: > 10 µM
- Kd [2]: > 10 µM
- Kd [3]: > 10 µM
- Kd [4]: > 10 µM
- Kd [5]: > 10 µM
- Kd [6]: 3.1 µM
- Kd [7]: > 10 µM
- Kd [8]: > 10 µM
- Kd [9]: > 10 µM
- Kd [10]: > 10 µM
- Kd [11]: > 10 µM
- Kd [12]: > 10 µM
- Kd [13]: 5.5 µM
- Effect on cell proliferation as single agent ([14]; absence of EGFR inhibitor (FIG. 3 left)): do not affect cell proliferation
- Anti-proliferative activity / re-growth in presence of Gefitinib ([14]; in presence of 300 nM Gefitinib (FIG. 3)): potentiate the effect of the EGFR inhibitor
- Response rate to therapy (best average response) ([15]; 2 mg/kg osimertinib in combination with 20 mg/kg CCS1477): increased response rate
- Tumor growth (slopes of mean tumor volume curves) versus osimertinib group ([15]; 2 mg/kg osimertinib in combination with 20 mg/kg CCS1477, daily, orally): significant difference
- Response to therapy (best average response) ([15]; 20 mg/kg CCS1477 alone): absence of response
- Tumor growth (slopes of mean tumor volume curves) versus vehicle ([15]; 20 mg/kg CCS1477 single agent, daily, orally): No significant difference
- Development of drug resistance / re-growth ([16]; HCC827, combined with 100 nM osimertinib): prevent the development of drug resistance
- Effect on cell proliferation on their own ([16]; HCC827, single agent (1 μM Compound A, 0.2 μM Compound C, 0.2 μM CCS1477, 1 μM FT-6876, 0.2 μM GNE-781)): do not affect cell proliferation
